Data taken from patent US7795241B2, “Derivative prodrugs of ethinyl estradiol” (Warner Chilcott Company, LLC, priority 2005, dated 2010).

Key:
[1] = Stability at 40° C./75% RH, prodrug assayed for degradation to ethinyl estradiol (HPLC); format: physicochemical; conditions: prodrug remaining; for Assay T = 2 W: 2 weeks; for Assay T = 0: T = 0 months; for Assay T = 1 M: 1 month; for Assay T = 6 M: 6 months
Method: Solubility was performed in water. […] The time-points for stability were T=0 months, T=2 weeks, T=1 month, T=3 months and T=6 months.
The following outlines the conditions utilized for analysis of this prodrug. Analysis was conducted using High-Performance Liquid Chromatography (HPLC).
The following outlines the conditions utilized for analysis of this prodrug. Analysis was conducted using HPLC.
The following outlines the conditions utilized for analysis of the prodrug. Analysis was conducted using HPLC.

[2] = Hydrolysis to the parent drug ethinyl estradiol (0.5N NaOH, HPLC quantification); format: physicochemical; conditions: 5 min, prodrug solution + water + 0.5N NaOH
Method: Hydrolysis studies refer to the rate of hydrolysis to the parent drug, ethinyl estradiol. Hydrolysis was conducted in the following manner: • (1) 1 mL of a solution containing the prodrug, 2.8 mL of water and 0.1 mL of 0.5N NaOH were combined; • (2) the resulting solution was vortexed for 10 seconds; • (3) the mixture was then left to stand for specific time intervals (e.g., 5 minutes, 15 minutes, etc.); • (4) the mixture was then neutralized with 0.1 mL of a buffer; and • (5) the solutions were finally injected to quantify the disappearance of the prodrug and the formation of the parent compound.

[3] = listed as ethinyl estradiol acetoxy acetate
[4] = listed as ethinyl estradiol lactate acetate

| Compound | Assay T = 2 W [1] [%] | Assay T = 0 [1] [%] | Hydrolysis (to ethinyl estradiol) [2] | Hydrolysis (to ethinyl estradiol) [2, 3] [%] | Assay T = 1 M [1] [%] | Assay T = 1 M [1, 3] [%] | Hydrolysis (to ethinyl estradiol) [2, 4] [%] | Assay T = 3 M ([1]; 3 months) [%] | Assay T = 6 M [1] [%] | Assay T = 6 M [1, 4] [%] |
| --- | --- | --- | --- | --- | --- | --- | --- | --- | --- | --- |
| C#CC1(O)CC[C@H]2[C@@H]3CCc4cc(OC(=O)[C@@H]5CCCN5C(C)=O)ccc4[C@H]3CC[C@@]21C (stereo partly drawn) [Ethinyl Estradiol N-Acetyl Prolinate, ethinyl estradiol N-acetyl proline] | 96.6 | 97.2 | – | – | – | – | – | – | – | – |
| ethinyl estradiol acetoxy acetate | 97.2 | 97.8 | 100% (5 min) | 100 | 97.0 | 97 | – | – | – | – |
| ethinyl estradiol lactate-acetate | – | 94.43 | 100% (5 min) | – | 93.67 | – | 100 | 95.91 | 95.89 | 95.9 |
